“Also recorded” adds a separate entry of the source. Read-outs that look alike come from different tables or passages of the source.
Experiment: Ocular tissue and plasma pharmacokinetics, 15 mg/kg single and BID oral, Dutch Belted rabbits (Example 3/5)
Assay type: in vivo
Settings: for MRTlast / Tlast / MRT inf / half-life: Choroid-RPE; for concentration at 1 h / concentration at 6 h / concentration at 168 h / concentration at 24 h / concentration at 96 h / concentration at 240 h / concentration at 0 h / MRT inf / half-life: Dutch Belted, rabbit
Procedure: Study design including group designation and dose levels are outlined in Table 4. […] Fifteen Dutch Belted and 5 New Zealand White rabbits were used as un-dosed controls. […] The dose volume was 5 mL/kg/dose for all groups. Safety was assessed with toxicological and ophthalmic examinations including slit lamp biomicroscopy, indirect ophthalmoscopy, rebound tonometry, and ultrasonic corneal pachymetry.
Analyst® software (Version 1.6.2) was used to capture the LC-MS/MS data and integrate the peak areas. Calibration standards and QCs were prepared in a blank solution of 75%:25% acetonitrile:water (v:v), ranging from 10 ng/mL to 10,000 ng/mL. Matrix matched standard and QC samples were prepared by mixing 2 μL of standard or QC sample above with 18 μL of appropriate ocular tissue or plasma. The final calibration standards ranged from 1 ng/mL to 1000 ng/mL. All plasma, retina, choroid-RPE, optic nerve, and vitreous humor samples were analyzed in a single run. Iris-ciliary body samples were analyzed in two runs due to a need for sample dilution. […] Dilution QCs were prepared at 5000 ng/mL where appropriate. Two sets of standards were used to bracket the analytical run at the beginning and end of the run. Three sets of QCs were included the analytical runs. All concentrations in ocular matrices are reported as ng/g based on the assumed density of 1 g/mL.
1, 6, 24, 96, 168, and 240 hours post-dose on Day 15, with the eyes collected at the same time as blood sampling. A single blood sample was taken from Groups 4 and 5 at sacrifice. Plasma, vitreous humor (VH), retina, choroid-retina pigmented epithelium (Choroid-RPE), optic nerve (ON), and iris-ciliary body (I-CB) were analyzed by LC-MS/MS to quantify test article concentrations. The lower limit of quantitation (LLOQ) in plasma and vitreous humor was 1.0 ng/mL. The LLOQ was 6.0 ng/g in retina, Choroid-RPE, and I-CB and the optic nerve LLOQ was 15 ng/g, assuming tissue density of 1 g/mL where relevant.
Study design including group designation and dose levels are outlined in Table 18.

[1] = DB rabbit, 15 mg/kg BID, Day 15
[2] = DB rabbit, 15 mg/kg single dose, Day 1
[3] = DB rabbit, 15 mg/kg BID oral, Day 15, 24 h
[4] = DB rabbit, 15 mg/kg BID oral, Day 15, 96 h
[5] = DB rabbit, 15 mg/kg BID oral, Day 15, 168 h
[6] = DB rabbit, 15 mg/kg BID oral, Day 15, 240 h
[7] = DB rabbit, 15 mg/kg single oral dose, Day 1, 0 h
[8] = DB rabbit, 15 mg/kg single oral dose, Day 1, 0 h, 15 mg/kg
[9] = DB rabbit, 15 mg/kg single oral dose, Day 1, 24 h
[10] = DB rabbit, 15 mg/kg single oral dose, Day 1, 96 h
[11] = DB rabbit, 15 mg/kg single oral dose, Day 1, 96 h, 15 mg/kg
[12] = DB rabbit, 15 mg/kg single oral dose, Day 1, 168 h
[13] = DB rabbit, 15 mg/kg single oral dose, Day 1, 240 h
[14] = DB rabbits, Day 1, 15 mg/kg single dose, 0 hr
[15] = choroid-RPE, po, 15 mg/kg, DB rabbit, 15 mg/kg BID, Day 15
[16] = choroid-RPE, po, 15 mg/kg, DB rabbit, 15 mg/kg single dose, Day 1

Compound: CC(=O)c1nn(CC(=O)N2C[C@H](F)C[C@H]2C(=O)Nc2cccc(Br)n2)c2ccc(-c3cnc(C)nc3)cc12 [Compound 1, (2S,4R)-1-(2-(3-Acetyl-5-(2-methylpyrimidin-5-yl)-1H-indazol-1-yl)acetyl)-N-(6-bromopyridin-2-yl)-4-fluoropyrrolidine-2-carboxamide]
- MRTlast [1]: 68.5 h
- Tlast [1]: 240 h
- MRTlast [2]: 49.7 h
- Tlast [2]: 240 h
- Vitreous humor concentration after 24 hours post-dose (non-detectable) (DB rabbit, 15 mg/kg BID for 14 days): < 1.0 ng/mL
- Mean Aqueous Humor concentration (DB rabbit, 15 mg/kg BID oral, Day 15, 0 h): BLQ^a
- Mean Aqueous Humor concentration (DB rabbit, 15 mg/kg BID oral, Day 15, 6 h): BLQ^a
- Mean Aqueous Humor concentration [3]: BLQ^a
- Mean Vitreous Humor concentration [3]: BLQ^a
- Mean plasma concentration (DB rabbit, 15 mg/kg BID oral, Day 15, 24 h, 15 mg/kg): 5.6 ng/mL
- Mean Aqueous Humor concentration [4]: BLQ^a
- Mean Vitreous Humor concentration [4]: BLQ^a
- Mean Aqueous Humor concentration [5]: BLQ^a
- Mean Vitreous Humor concentration [5]: BLQ^a
- Mean plasma concentration [5]: BLQ^a
- Mean Aqueous Humor concentration [6]: BLQ^a
- Mean Vitreous Humor concentration [6]: BLQ^a
- Mean plasma concentration [6]: BLQ^a
- Mean Aqueous Humor concentration [7]: BLQ^a
- Mean Vitreous Humor concentration [7]: BLQ^a
- Mean plasma concentration [7]: BLQ^a
- Mean Choroid-RPE concentration [8]: BLQ^a and BLQ
- Mean Iris-Ciliary Body concentration [8]: BLQ^a and BLQ
- Mean retina concentration [8]: BLQa and BLQ^a and BLQ
- Mean retina concentration (DB rabbit, 15 mg/kg single oral dose, Day 1, 6 h, 15 mg/kg): 30 ng/g
- Mean Aqueous Humor concentration [9]: BLQ^a
- Mean Vitreous Humor concentration [9]: BLQ^a
- Mean retina concentration (DB rabbit, 15 mg/kg single oral dose, Day 1, 24 h, 15 mg/kg): 25 ng/g
- Mean Aqueous Humor concentration [10]: BLQ^a
- Mean Vitreous Humor concentration [10]: BLQ^a
- Mean plasma concentration [11]: no drug was detectable; also recorded: BLQ^a
- Mean retina concentration [11]: BLQ^a and BLQ
- Mean Vitreous Humor concentration [12]: BLQ^a
- Mean plasma concentration [12]: BLQ^a
- Mean retina concentration (DB rabbit, 15 mg/kg single oral dose, Day 1, 168 h, 15 mg/kg): BLQ^a and BLQ
- Mean Aqueous Humor concentration [13]: BLQ^a
- Mean Vitreous Humor concentration [13]: BLQ^a
- Mean plasma concentration [13]: BLQ^a
- Mean retina concentration (DB rabbit, 15 mg/kg single oral dose, Day 1, 240 h, 15 mg/kg): BLQ^a and BLQ
- Accumulation of the drug in Choroid-RPE after repeat dosing (DB rabbit, Day 1 to Day 15): ~6 fold
- Mean Choroid-RPE concentration [14]: BLQ
- Mean retina concentration [14]: BLQ
- Mean retina concentration (DB rabbits, Day 1, 15 mg/kg single dose, 96 hr): BLQ
- Mean retina concentration (DB rabbits, Day 1, 15 mg/kg single dose, 168 hr): BLQ
- Mean retina concentration (DB rabbits, Day 1, 15 mg/kg single dose, 240 hr): BLQ
- concentration at 1 h (aqueous humor, po, 15 mg/kg, DB rabbit, 15 mg/kg BID oral, Day 15, 1 h, read-out: Mean Aqueous Humor concentration): 10.6 ng/mL
- concentration at 1 h (aqueous humor, po, 15 mg/kg, DB rabbit, 15 mg/kg single oral dose, Day 1, 1 h, read-out: Mean Aqueous Humor concentration): 3.8 ng/mL
- concentration at 6 h (aqueous humor, po, 15 mg/kg, DB rabbit, 15 mg/kg single oral dose, Day 1, 6 h, read-out: Mean Aqueous Humor concentration): 45.3 ng/mL
- concentration at 168 h (aqueous humor, po, 15 mg/kg, DB rabbit, 15 mg/kg single oral dose, Day 1, 168 h, read-out: Mean Aqueous Humor concentration): 11.1 ng/mL
- concentration at 1 h (choroid-RPE, oral, 15 mg/kg, DB rabbits, Day 1, 15 mg/kg single dose, 1 hr, read-out: Mean Choroid-RPE Concentration): 917 ng/g
- concentration at 6 h (choroid-RPE, oral, 15 mg/kg, DB rabbits, Day 1, 15 mg/kg single dose, 6 hr, read-out: Mean Choroid-RPE Concentration): 866 ng/g
- concentration at 24 h (choroid-RPE, oral, 15 mg/kg, DB rabbits, Day 1, 15 mg/kg single dose, 24 hr, read-out: Mean Choroid-RPE Concentration): 311 ng/g
- concentration at 96 h (choroid-RPE, oral, 15 mg/kg, DB rabbits, Day 1, 15 mg/kg single dose, 96 hr, read-out: Mean Choroid-RPE Concentration): 77.5 ng/g
- concentration at 168 h (choroid-RPE, oral, 15 mg/kg, DB rabbits, Day 1, 15 mg/kg single dose, 168 hr, read-out: Mean Choroid-RPE Concentration): 56.3 ng/g
- concentration at 240 h (choroid-RPE, oral, 15 mg/kg, DB rabbits, Day 1, 15 mg/kg single dose, 240 hr, read-out: Mean Choroid-RPE Concentration): 28.1 ng/g
- concentration at 0 h (choroid-RPE, oral, 15 mg/kg, DB rabbits, Day 15, 15 mg/kg BID, 0 hr, read-out: Mean Choroid-RPE Concentration): 2460 ng/g
- concentration at 1 h (choroid-RPE, oral, 15 mg/kg, DB rabbits, Day 15, 15 mg/kg BID, 1 hr, read-out: Mean Choroid-RPE Concentration): 4870 ng/g
- concentration at 6 h (choroid-RPE, oral, 15 mg/kg, DB rabbits, Day 15, 15 mg/kg BID, 6 hr, read-out: Mean Choroid-RPE Concentration): 3200 ng/g
- concentration at 24 h (choroid-RPE, oral, 15 mg/kg, DB rabbits, Day 15, 15 mg/kg BID, 24 hr, read-out: Mean Choroid-RPE Concentration): 1960 ng/g
- concentration at 96 h (choroid-RPE, oral, 15 mg/kg, DB rabbits, Day 15, 15 mg/kg BID, 96 hr, read-out: Mean Choroid-RPE Concentration): 866 ng/g
- concentration at 168 h (choroid-RPE, oral, 15 mg/kg, DB rabbits, Day 15, 15 mg/kg BID, 168 hr, read-out: Mean Choroid-RPE Concentration): 485 ng/g
- concentration at 240 h (choroid-RPE, oral, 15 mg/kg, DB rabbits, Day 15, 15 mg/kg BID, 240 hr, read-out: Mean Choroid-RPE Concentration): 340 ng/g
- MRT inf [15]: 125 h
- half-life [15]: 107 h
- MRT inf [16]: 81.8 h
- half-life [16]: 98.4 h
- concentration at 0 h (choroid-RPE, po, 15 mg/kg, DB rabbit, 15 mg/kg BID oral, Day 15, 0 h, read-out: Mean Choroid-RPE concentration): 2460 ng/g
- concentration at 1 h (choroid-RPE, po, 15 mg/kg, DB rabbit, 15 mg/kg BID oral, Day 15, 1 h, read-out: Mean Choroid-RPE concentration): 4870 ng/g
- concentration at 6 h (choroid-RPE, po, 15 mg/kg, DB rabbit, 15 mg/kg BID oral, Day 15, 6 h, read-out: Mean Choroid-RPE concentration): 3200 ng/g
- concentration at 24 h (choroid-RPE, po, 15 mg/kg, DB rabbit, 15 mg/kg BID oral, Day 15, 24 h, read-out: Mean Choroid-RPE concentration): 1960 ng/g
- concentration at 96 h (choroid-RPE, po, 15 mg/kg, DB rabbit, 15 mg/kg BID oral, Day 15, 96 h, read-out: Mean Choroid-RPE concentration): 866 ng/g
- concentration at 168 h (choroid-RPE, po, 15 mg/kg, DB rabbit, 15 mg/kg BID oral, Day 15, 168 h, read-out: Mean Choroid-RPE concentration): 485 ng/g
- concentration at 240 h (choroid-RPE, po, 15 mg/kg, DB rabbit, 15 mg/kg BID oral, Day 15, 240 h, read-out: Mean Choroid-RPE concentration): 340 ng/g
- concentration at 1 h (choroid-RPE, po, 15 mg/kg, DB rabbit, 15 mg/kg single oral dose, Day 1, 1 h, read-out: Mean Choroid-RPE concentration): 917 ng/g
- concentration at 6 h (choroid-RPE, po, 15 mg/kg, DB rabbit, 15 mg/kg single oral dose, Day 1, 6 h, read-out: Mean Choroid-RPE concentration): 866 ng/g
- concentration at 24 h (choroid-RPE, po, 15 mg/kg, DB rabbit, 15 mg/kg single oral dose, Day 1, 24 h, read-out: Mean Choroid-RPE concentration): 311 ng/g
- concentration at 96 h (choroid-RPE, po, 15 mg/kg, DB rabbit, 15 mg/kg single oral dose, Day 1, 96 h, read-out: Mean Choroid-RPE concentration): 77.5 ng/g
- concentration at 168 h (choroid-RPE, po, 15 mg/kg, DB rabbit, 15 mg/kg single oral dose, Day 1, 168 h, read-out: Mean Choroid-RPE concentration): 56.3 ng/g
- concentration at 240 h (choroid-RPE, po, 15 mg/kg, DB rabbit, 15 mg/kg single oral dose, Day 1, 240 h, read-out: Mean Choroid-RPE concentration): 28.1 ng/g

From US20230126447A1, “OCULAR DRUG DEPOT FOR COMPLEMENT-MEDIATED DISORDERS” (priority 2020, published 2023)
